Source: US20250154525A1, “PLANT VIRUS MOVEMENT PROTEINS AND METHODS OF USING SAME” (Molecular Transfer, Inc., priority 2016, published 2025)

Key:
C2C12 Cells = assay: GFP plasmid transfection with DOTMA/DOPE plus surface ligand peptide, fluorescent plate reader (Example 1); assay type: cell-based, mouse; settings: DOTMA/DOPE + peptide linked to R12 or K16; EF1Alpha eGFP plasmid; 42 hours
Method in brief: (§1)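 DOTMA/DOPE (1:1 molar) plus peptide bearing a poly-Arg or poly-Lys tag was complexed 10 min with EF1alpha eGFP plasmid in OptiMEM, then added to 70%-confluent cells (0.01 mL fibroblasts; 0.02 mL C2C12, Jurkat). After 42 h at 37 °C, GFP was read by plate reader and compared with DOTMA without ligand.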

some examined cell types = assay: Summary of Example 1: transfection expression and % cells transfected over the no peptide control; assay type: cell-based; settings: on some examined cell types
Method in brief: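 Cells at 70% confluence received DNA complexes of EF1Alpha eGFP plasmid with DOTMA/DOPE (1:1) plus oligo-Arg- or oligo-Lys-tagged peptide ligands, formed 10 min at room temperature. After 42 h at 37 °C, 5% CO2, GFP read by plate reader and % transfected cells judged microscopically, relative to lipid without peptide.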

HeLa Cells [1] = assay: GFP transfection with DOTMA/SEQ ID NO: 72 (fusogenic peptide)/peptide compared with Lipofectamine 2000; assay type: cell-based
Method in brief: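 DOTMA/DOPE (1:1 molar) lipid mixed with polyarginine- or polylysine-tagged cell-surface-ligand peptide, complexed 10 min with EF1alpha eGFP plasmid at 10 μg/mL in OptiMEM, fusogenic peptide at 0.1 mg/mL final; HeLa cells ~70% confluent given 0.01 mL complex. GFP read by fluorescence plate reader and microscopy (% cells transfected) after 42 h at 37° C; Lipofectamine 2000 as comparator.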

HeLa Cells [2] = assay: GFP plasmid transfection with DOTMA/DOPE plus surface ligand peptide, fluorescent plate reader (Example 1); assay type: cell-based; settings: DOTMA/DOPE + peptide linked to R12 or K16; EF1Alpha eGFP plasmid; 42 hours
HuVec Cells = assay: as above; assay type: cell-based; settings: DOTMA/DOPE + peptide linked to R12 or K16; EF1Alpha eGFP plasmid; 42 hours
Method in brief: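 HuVEC cells in 96 well plates at 70% confluence were transfected with EF1Alpha eGFP plasmid using a 1:1 molar DOTMA/DOPE lipid mixed with a surface ligand peptide carrying a covalently attached nucleic acid binding moiety. Complexes formed for 10 minutes, 0.01 mL went to each well, cells were incubated 42 hours at 37° C., and fluorescence was read on a plate reader.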

NL-1 iPS Cells = assay: as above; assay type: cell-based; settings: DOTMA/DOPE + peptide linked to R12 or K16; EF1Alpha eGFP plasmid; 42 hours
Jurkat Cells = assay: as above; assay type: cell-based; settings: DOTMA/DOPE + peptide linked to R12 or K16; EF1Alpha eGFP plasmid; 42 hours
Method in brief: as §1

Human Fibroblast Cells = assay: as above; assay type: cell-based; settings: DOTMA/DOPE + peptide linked to R12 or K16; EF1Alpha eGFP plasmid; 42 hours
Method in brief: as §1

[3] = 0.1 μL of DOTMA/SEQ ID NO: 72/Peptide in well of a 96 well plate
[4] = 0.2 μL of DOTMA/SEQ ID NO: 72/Peptide in well of a 96 well plate
[5] = 0.3 μL of DOTMA/SEQ ID NO: 72/Peptide in well of a 96 well plate
[6] = 0.4 μL of DOTMA/SEQ ID NO: 72/Peptide in well of a 96 well plate

Substance	Relative Fluorescence of Transfection of C2C12 Cells (RF) (C2C12 Cells)	transfection expression and % cells transfected over the no peptide control (some examined cell types)	Relative Fluorescence DOTMA/SEQ ID NO: 72/Peptide, HeLa Cells (RF) (HeLa Cells [1]; [3])	Relative Fluorescence DOTMA/SEQ ID NO: 72/Peptide, HeLa Cells (RF) (HeLa Cells [1]; [4])	Relative Fluorescence DOTMA/SEQ ID NO: 72/Peptide, HeLa Cells (RF) (HeLa Cells [1]; [5])	Relative Fluorescence DOTMA/SEQ ID NO: 72/Peptide, HeLa Cells (RF) (HeLa Cells [1]; [6])	Relative Fluorescence of Transfection of HeLa Cells (RF) (HeLa Cells [2])	Relative Fluorescence of Transfection of HuVec Cells (RF) (HuVec Cells)	Relative Fluorescence of Transfection of NL-1 iPS Cells (RF) (NL-1 iPS Cells)	Relative Fluorescence of Transfection of Jurkat Cells (RF) (Jurkat Cells)	Relative Fluorescence of Transfection of Human Fibroblast Cells (RF) (Human Fibroblast Cells)
375 (LAGSCLPVFSTL) [compound 375]	5633	increased transfection expression and the % cells transfected	22457	30891	34887	29024	41076	5542	5196	4272	7305
328 (NWRHISYITRFG) [compound 328]	5507	increased transfection expression and the % cells transfected	11037	12229	10801	10951	32528	3614	8611	4770	5641
344 (KGHRGF) [compound 344]	1678	increased transfection expression and the % cells transfected	13315	16387	12564	12511	14415	11867	10895	10160	12704
365 (ISRCQVCMKKRH) [compound 365]	5390	increased transfection expression and the % cells transfected	26620	43775	36054	21540	36093	14764	6364	5298	5219
360 (GDLGRPGRKGRPGPP) [compound 360]	2090	increased transfection expression and the % cells transfected	9946	11168	10381	8995	8516	24042	27572	16607	5347
268 (GGFLKYTVSYDI) [compound 268]	2568	increased transfection expression and the % cells transfected	10162	9934	10792	9519	25885	5403	15697	3236	4568
377 (TAGSCLRRFSTM) [compound 377]	1710	increased transfection expression and the % cells transfected	39115	40072	32914	22457	15091	9326	5474	6785	6638
353 (KKQRFRHRNRKGYRSQ) [compound 353]	4291	increased transfection expression and the % cells transfected	36315	44772	36882	25802	29119	8772	9248	11107	8653
347 (DLGTAGSCLRKFSTM) [compound 347]	4457	increased transfection expression and the % cells transfected	23188	21493	16814	14140	22527	20728	21865	17720	9255
452 (CNYYSNSYSFWLASLNPER) [compound 452]	21798	increased transfection expression and the % cells transfected	6276	12671	12047	10918	13888	1841	10349	2554	2779
350 (SIGFRGDGQTC) [compound 350]	2631	increased transfection expression and the % cells transfected	24092	23238	19802	22255	13313	13163	19132	9184	7105
237 (KNSFMALYLSKG) [compound 237]	6491	increased transfection expression and the % cells transfected	8986	9753	8015	8288	21288	2302	8632	1501	2184
